Laboratory results reported in the NIST ThermoML archive (doi:10.1016/j.tca.2015.06.017).
± gives the expanded uncertainty stated by the source.

Assay: xn = mol fraction of the nth substance listed
Settings: Liquid, Vibrating tube method

CCC(C)Cl (stereo unspecified) [2-chlorobutane] + CCCCCCC
mass density (303.15 K, 50000 kPa, x2 = 0.1968): 858.96 ± 0.51 kg/m3 | mass density (303.15 K, 50000 kPa, x2 = 0.3006): 835.46 ± 0.55 kg/m3 | mass density (303.15 K, 50000 kPa, x2 = 0.4029): 813.98 ± 0.6 kg/m3 | mass density (303.15 K, 50000 kPa, x2 = 0.5017): 794.72 ± 0.63 kg/m3 | mass density (303.15 K, 50000 kPa, x2 = 0.6008): 776.69 ± 0.67 kg/m3 | mass density (303.15 K, 50000 kPa, x2 = 0.7023): 759.44 ± 0.7 kg/m3 | mass density (303.15 K, 50000 kPa, x2 = 0.7977): 744.29 ± 0.74 kg/m3 | mass density (303.15 K, 50000 kPa, x2 = 0.8986): 729.42 ± 0.77 kg/m3 | mass density (303.15 K, 50000 kPa, x2 = 0.952): 721.96 ± 0.78 kg/m3 | mass density (303.15 K, 60000 kPa, x2 = 0.0524): 902.31 ± 0.46 kg/m3 | mass density (303.15 K, 60000 kPa, x2 = 0.1018): 889.34 ± 0.49 kg/m3 | mass density (303.15 K, 60000 kPa, x2 = 0.1968): 866.09 ± 0.54 kg/m3 | mass density (303.15 K, 60000 kPa, x2 = 0.3006): 842.43 ± 0.6 kg/m3 | mass density (303.15 K, 60000 kPa, x2 = 0.4029): 820.82 ± 0.65 kg/m3 | mass density (303.15 K, 60000 kPa, x2 = 0.5017): 801.47 ± 0.7 kg/m3 | mass density (303.15 K, 60000 kPa, x2 = 0.6008): 783.34 ± 0.74 kg/m3 | mass density (303.15 K, 60000 kPa, x2 = 0.7023): 766 ± 0.78 kg/m3 | mass density (303.15 K, 60000 kPa, x2 = 0.7977): 750.71 ± 0.82 kg/m3 | mass density (303.15 K, 60000 kPa, x2 = 0.8986): 735.66 ± 0.86 kg/m3 | mass density (303.15 K, 60000 kPa, x2 = 0.952): 728.17 ± 0.87 kg/m3 | mass density (303.15 K, 65000 kPa, x2 = 0.0524): 905.77 ± 0.47 kg/m3 | mass density (303.15 K, 65000 kPa, x2 = 0.1018): 892.87 ± 0.5 kg/m3 | mass density (303.15 K, 65000 kPa, x2 = 0.1968): 869.57 ± 0.56 kg/m3 | mass density (303.15 K, 65000 kPa, x2 = 0.3006): 845.82 ± 0.62 kg/m3 | mass density (303.15 K, 65000 kPa, x2 = 0.4029): 824.21 ± 0.68 kg/m3 | mass density (303.15 K, 65000 kPa, x2 = 0.5017): 804.75 ± 0.73 kg/m3 | mass density (303.15 K, 65000 kPa, x2 = 0.6008): 786.56 ± 0.77 kg/m3 | mass density (303.15 K, 65000 kPa, x2 = 0.7023): 769.12 ± 0.82 kg/m3 | mass density (303.15 K, 65000 kPa, x2 = 0.7977): 753.9 ± 0.86 kg/m3 | mass density (303.15 K, 65000 kPa, x2 = 0.8986): 738.65 ± 0.9 kg/m3 | mass density (303.15 K, 65000 kPa, x2 = 0.952): 731.1 ± 0.92 kg/m3 | mass density (313.15 K, 100 kPa, x2 = 0.0524): 836.56 ± 0.24 kg/m3 | mass density (313.15 K, 100 kPa, x2 = 0.1018): 824.33 ± 0.24 kg/m3 | mass density (313.15 K, 100 kPa, x2 = 0.1968): 802.22 ± 0.24 kg/m3 | mass density (313.15 K, 100 kPa, x2 = 0.3006): 779.88 ± 0.24 kg/m3 | mass density (313.15 K, 100 kPa, x2 = 0.4029): 759.54 ± 0.24 kg/m3 | mass density (313.15 K, 100 kPa, x2 = 0.5017): 741.34 ± 0.25 kg/m3 | mass density (313.15 K, 100 kPa, x2 = 0.6008): 724.36 ± 0.25 kg/m3 | mass density (313.15 K, 100 kPa, x2 = 0.7023): 708.18 ± 0.25 kg/m3 | mass density (313.15 K, 100 kPa, x2 = 0.7977): 694.03 ± 0.25 kg/m3 | mass density (313.15 K, 100 kPa, x2 = 0.8986): 680.16 ± 0.25 kg/m3 | mass density (313.15 K, 100 kPa, x2 = 0.952): 673.13 ± 0.25 kg/m3 | mass density (313.15 K, 2000 kPa, x2 = 0.0524): 839.05 ± 0.25 kg/m3 | mass density (313.15 K, 2000 kPa, x2 = 0.1018): 826.85 ± 0.25 kg/m3 | mass density (313.15 K, 2000 kPa, x2 = 0.1968): 804.68 ± 0.25 kg/m3 | mass density (313.15 K, 2000 kPa, x2 = 0.3006): 782.33 ± 0.26 kg/m3 | mass density (313.15 K, 2000 kPa, x2 = 0.4029): 761.96 ± 0.26 kg/m3 | mass density (313.15 K, 2000 kPa, x2 = 0.5017): 743.67 ± 0.26 kg/m3 | mass density (313.15 K, 2000 kPa, x2 = 0.6008): 726.67 ± 0.27 kg/m3 | mass density (313.15 K, 2000 kPa, x2 = 0.7023): 710.46 ± 0.27 kg/m3 | mass density (313.15 K, 2000 kPa, x2 = 0.7977): 696.31 ± 0.27 kg/m3 | mass density (313.15 K, 2000 kPa, x2 = 0.8986): 682.39 ± 0.27 kg/m3 | mass density (313.15 K, 2000 kPa, x2 = 0.952): 675.34 ± 0.27 kg/m3 | mass density (313.15 K, 5000 kPa, x2 = 0.0524): 842.87 ± 0.27 kg/m3 | mass density (313.15 K, 5000 kPa, x2 = 0.1018): 830.59 ± 0.27 kg/m3 | mass density (313.15 K, 5000 kPa, x2 = 0.1968): 808.31 ± 0.28 kg/m3 | mass density (313.15 K, 5000 kPa, x2 = 0.3006): 785.99 ± 0.28 kg/m3 | mass density (313.15 K, 5000 kPa, x2 = 0.4029): 765.53 ± 0.29 kg/m3 | mass density (313.15 K, 5000 kPa, x2 = 0.5017): 747.19 ± 0.29 kg/m3 | mass density (313.15 K, 5000 kPa, x2 = 0.6008): 730.09 ± 0.3 kg/m3 | mass density (313.15 K, 5000 kPa, x2 = 0.7023): 713.8 ± 0.3 kg/m3 | mass density (313.15 K, 5000 kPa, x2 = 0.7977): 699.58 ± 0.3 kg/m3 | mass density (313.15 K, 5000 kPa, x2 = 0.8986): 685.57 ± 0.31 kg/m3 | mass density (313.15 K, 5000 kPa, x2 = 0.952): 678.46 ± 0.31 kg/m3 | mass density (313.15 K, 7000 kPa, x2 = 0.0524): 845.3 ± 0.28 kg/m3 | mass density (313.15 K, 7000 kPa, x2 = 0.1018): 832.97 ± 0.28 kg/m3 | mass density (313.15 K, 7000 kPa, x2 = 0.1968): 810.78 ± 0.29 kg/m3 | mass density (313.15 K, 7000 kPa, x2 = 0.3006): 788.3 ± 0.3 kg/m3 | mass density (313.15 K, 7000 kPa, x2 = 0.4029): 767.84 ± 0.3 kg/m3 | mass density (313.15 K, 7000 kPa, x2 = 0.5017): 749.48 ± 0.31 kg/m3 | mass density (313.15 K, 7000 kPa, x2 = 0.6008): 732.35 ± 0.32 kg/m3 | mass density (313.15 K, 7000 kPa, x2 = 0.7023): 716.03 ± 0.32 kg/m3 | mass density (313.15 K, 7000 kPa, x2 = 0.7977): 701.8 ± 0.33 kg/m3 | mass density (313.15 K, 7000 kPa, x2 = 0.8986): 687.74 ± 0.33 kg/m3 | mass density (313.15 K, 7000 kPa, x2 = 0.952): 680.62 ± 0.33 kg/m3 | mass density (313.15 K, 10000 kPa, x2 = 0.0524): 848.77 ± 0.3 kg/m3 | mass density (313.15 K, 10000 kPa, x2 = 0.1018): 836.51 ± 0.3 kg/m3 | mass density (313.15 K, 10000 kPa, x2 = 0.1968): 814.23 ± 0.31 kg/m3 | mass density (313.15 K, 10000 kPa, x2 = 0.3006): 791.7 ± 0.32 kg/m3 | mass density (313.15 K, 10000 kPa, x2 = 0.4029): 771.16 ± 0.33 kg/m3 | mass density (313.15 K, 10000 kPa, x2 = 0.5017): 752.73 ± 0.34 kg/m3 | mass density (313.15 K, 10000 kPa, x2 = 0.6008): 735.56 ± 0.34 kg/m3 | mass density (313.15 K, 10000 kPa, x2 = 0.7023): 719.19 ± 0.35 kg/m3 | mass density (313.15 K, 10000 kPa, x2 = 0.7977): 704.84 ± 0.36 kg/m3 | mass density (313.15 K, 10000 kPa, x2 = 0.8986): 690.69 ± 0.37 kg/m3 | mass density (313.15 K, 10000 kPa, x2 = 0.952): 683.56 ± 0.37 kg/m3 | mass density (313.15 K, 20000 kPa, x2 = 0.0524): 859.69 ± 0.34 kg/m3 | mass density (313.15 K, 20000 kPa, x2 = 0.1018): 847.28 ± 0.35 kg/m3 | mass density (313.15 K, 20000 kPa, x2 = 0.1968): 824.81 ± 0.37 kg/m3 | mass density (313.15 K, 20000 kPa, x2 = 0.3006): 802.08 ± 0.39 kg/m3 | mass density (313.15 K, 20000 kPa, x2 = 0.4029): 781.34 ± 0.41 kg/m3
